# Values of other authors, collected in US4833152A, “Anti-hypertensive agents” (University of Miami, priority 1987, dated 1989).
# Experiments:
# [1] = 1 mg per ml, pH about 8, as little as 30 minutes, ambient conditions
# [2] = tested on: ACE
structure (smiles),measurement,setting,value
"C[C@H](CS)C(=O)N1CCCC1C(=O)O (stereo in doubt) [SQ14225, D-3-mercapto-2-methylpropanoyl-L-proline]",loss of activity of fresh aqueous solution on standing,[1],substantially less active upon standing for as little as 30 minutes
same,"ACE inhibition, in words","[2]; U.S. Pat. No. 4,046,889, Cushman 1977, Ondetti 1977",highly effective inhibitor
CC(=O)SC[C@@H](C)C(=O)N1CCC[C@H]1C(=O)O [S-acetyl derivative],potency of the inhibitor on substitution of the sulfhydryl,"[2]; relative to free sulfhydryl SQ14225, Cushman et al., Biochemistry",substantially reduced potency of the inhibitor
C[C@H](CSSC[C@@H](C)C(=O)N1CCC[C@H]1C(=O)O)C(=O)N1CCC[C@H]1C(=O)O [disulfide],inhibitory activity of the disulfide,"[2]; disulfide formed by dimerization of SQ14225, believed",largely inactive as an inhibitor
